Reference: US20240027453A1, “METHOD FOR DETECTION AND QUANTITATIVE MONITORING OF INFECTIONS WITH HERPESVIRUSES” (The Trustees of Princeton University, priority 2020, published 2024)
Like-named read-outs stand apart in the source and are kept apart here.

Test system: HCMV
Assay type: cell-based
Method: In example herpesvirus PRM assay methods shown herein, cell pellets were lysed in 2% SDS, 100 mM NaCl, 0.5 mM EDTA, 50 mM Tris, pH 8.2, and 50 μg of protein was reduced and alkylated with 25 mM TCEP and 50 mM CAM respectively for 20 min at 70° C. Proteins were then precipitated via methanol chloroform precipitation (Wessel & Flugg, Anal Biochem. 138(1):141-143, 1984), resuspended in 50 mM HEPES, pH 8.2 and digested overnight with trypsin (50:1 protein:enzyme w/w ratio). Digested peptides were desalted by SDB-RPS StageTip as previously described (Lum et al., Cell Syst., 7(6):[…], 2018; Greco et al., Methods Mol Biol 1410:39-63, 2016; Federspiel & Cristea, Methods Mol Biol., 1977:115-143, 2019).
Peptides (1.0 μg on column) were analyzed by LC-MS/MS using a Dionex Ultimate 3000 UHPLC coupled online to an EASYSpray ion source and a Q Exactive HF. Peptides were separated on an EASYSpray C18 column (75 μm×25 cm) heated to 50° C. using a linear gradient of 5% B to 32% B over 60 min at a flow rate of 250 nL/min and were ionized at 1.7 kv. Mobile phase A consisted of 0.1% FA in H2O and mobile phase B consisted of 0.1% FA, 2.9% H2O in ACN.
The PRM method was controlled by a peptide inclusion list with retention time windows of 6 min for selected precursor ions.
The PRM assay was developed and analyzed using the open-source software Skyline (Maclean et al., Bioinformatics 26(7):966-968, 2010). Summed area under the curve of 3-4 transitions per peptide was used for quantitation. Targeted peptides were normalized to host protein loading control peptides. Peptide values for each sample were scaled to the average of each peptide across all runs. The average of multiple peptides was used as the inferred value for the protein measurement when more than one peptide was quantified (Federspiel et al., PLoS Biol. 17(9):e3000437. Doi: 10.1371/journal.pbio.3000437). PRM quantitation data were graphed using the Python Seaborn and Matplotlib libraries.
MRC5 primary human fibroblasts (HFs) (ATCC CCL-171) were used as the model system for HSV-1 and HCMV infections and were cultured in complete growth medium (DMEM supplemented with 10% fetal bovine serum and 1% penicillin-streptomycin antibiotics) at 37° C. and 5% CO2. iSLK.219 cells harboring latent KSHV (a gift from Dr. Britt Glaunsinger, University of California, Berkeley) were grown in complete growth medium supplemented with 500 μg/ml hygromycin (ThermoFisher Scientific, 10687010) at 37° C. and 5% CO2. All cells were used for experiments within a maximum of 10 passages.
Wild type HSV-1 strain 17+ (a gift from Beate Sodeik, Hannover Medical School, Hannover, Germany) was propagated as previously described (Diner et al., 2015). Briefly, PO stocks were generated by electroporating pBAC-HSV-1 into U-2 OS cells. […] In a similar manner, wild type HCMV strain AD169 was produced from BAC electroporation into HFs and working stocks were propagated by infecting HFs at a low level. In both cases, cell-associated virus was released by sonication, combined with supernatant virus, then concentrated by ultracentrifugation (20,000 rpm, 2 hours, 4° C. with SW28 swinging bucket rotor [Beckman Coulter]) over a 10% ficoll (HSV-1) or 20% sorbitol (HCMV) cushion. Virus stock titers were determined by plaque assay for HSV-1 or tissue culture infectious dose (TCID50) for HCMV and infections were performed at a multiplicity of infection (MOI) of 3.
12 hours prior to virus infection or reactivation, cells were treated with either the small molecule drug or DMSO/PBS control at an equivalent volume. […] For infection cycles lasting longer than 24 hours, small molecule drugs were re-added to the cell culture medium every 24 hours. Upon collection, cells were rinsed with PBS, scraped into a microcentrifuge tube, pelleted by centrifugation, and rinsed again with PBS.

Compound: Nc1ccn(C[C@@H](CO)OCP(=O)(O)O)c(=O)n1 [CDV, cidofovir]
- gB (P06473) protein, numerical value of heatmap FIG. 6C (DE, timepoint 96): 0.9959
- sp|P09710|IR01_HCMVA (P09710) protein, numerical value of heatmap FIG. 6C (DE, timepoint 96): 0.4967
- CVC2 (P16726) protein, numerical value of heatmap FIG. 6C (DE, timepoint 120): 0.9588
- DBP (P17147) protein, numerical value of heatmap FIG. 6C (DE, timepoint 120): 2.035
- HELI (P16736) protein, numerical value of heatmap FIG. 6C (DE, timepoint 120): 1.128
- NEC1 (P16794) protein, numerical value of heatmap FIG. 6C (DE, timepoint 120): 1.121
- NEC2 (P16791) protein, numerical value of heatmap FIG. 6C (DE, timepoint 120): 1.797
- RIR1 (P16782) protein, numerical value of heatmap FIG. 6C (DE, timepoint 120): 1.313
- TRM1 (P16724) protein, numerical value of heatmap FIG. 6C (DE, timepoint 120): 1.312
- UL4 (P17146) protein, numerical value of heatmap FIG. 6C (DE, timepoint 120): 0.635
- UL26 (P16762) protein, numerical value of heatmap FIG. 6C (DE, timepoint 120): 1.564
- UL32 (P08318) protein, numerical value of heatmap FIG. 6C (DE, timepoint 120): 1.478
- UL34 (P16812) protein, numerical value of heatmap FIG. 6C (DE, timepoint 120): 0.9444
- UL35 (P16766) protein, numerical value of heatmap FIG. 6C (DE, timepoint 120): 1.133
- UL38 (P16779) protein, numerical value of heatmap FIG. 6C (DE, timepoint 120): 1.272
- UL44 (P16790) protein, numerical value of heatmap FIG. 6C (DE, timepoint 120): 1.235
- UL48 (P16785) protein, numerical value of heatmap FIG. 6C (DE, timepoint 120): 1.1
- UL54 (P08546) protein, numerical value of heatmap FIG. 6C (DE, timepoint 120): 1.415
- UL71 (P16823) protein, numerical value of heatmap FIG. 6C (DE, timepoint 120): 1.229
- UL78 (P16751) protein, numerical value of heatmap FIG. 6C (DE, timepoint 120): 0.9208
- UL84 (P16727) protein, numerical value of heatmap FIG. 6C (DE, timepoint 120): 1.217
- UL95 (P16801) protein, numerical value of heatmap FIG. 6C (DE, timepoint 120): 0.7275
- UL96 (P16787) protein, numerical value of heatmap FIG. 6C (DE, timepoint 120): 1.265
- UL97 (P16788) protein, numerical value of heatmap FIG. 6C (DE, timepoint 120): 1.137
- UL98 (P16789) protein, numerical value of heatmap FIG. 6C (DE, timepoint 120): 1.14
- UL102 (P16827) protein, numerical value of heatmap FIG. 6C (DE, timepoint 120): 1.353
- UL104 (P16735) protein, numerical value of heatmap FIG. 6C (DE, timepoint 120): 0.8938
- UL112/UL113 (P17151) protein, numerical value of heatmap FIG. 6C (DE, timepoint 120): 0.8795
- UL114 (P16769) protein, numerical value of heatmap FIG. 6C (DE, timepoint 120): 1.541
- UL119/UL118 (P16739) protein, numerical value of heatmap FIG. 6C (DE, timepoint 120): 0.8678
- UL128 (P16837) protein, numerical value of heatmap FIG. 6C (DE, timepoint 120): 1.193
- US8 (P09730) protein, numerical value of heatmap FIG. 6C (DE, timepoint 120): 1.14
- US9 (P09729) protein, numerical value of heatmap FIG. 6C (DE, timepoint 120): 1.342
- US12 (P09721) protein, numerical value of heatmap FIG. 6C (DE, timepoint 120): 0.661
- US13 (P09720) protein, numerical value of heatmap FIG. 6C (DE, timepoint 120): 0.7786
- US14 (P09719) protein, numerical value of heatmap FIG. 6C (DE, timepoint 120): 0.6977
- US18 (P69334) protein, numerical value of heatmap FIG. 6C (DE, timepoint 120): 0.679
- US22 (P09722) protein, numerical value of heatmap FIG. 6C (DE, timepoint 120): 1.167
- US23 (P09701) protein, numerical value of heatmap FIG. 6C (DE, timepoint 120): 1.024
- US24 (P09700) protein, numerical value of heatmap FIG. 6C (DE, timepoint 120): 1.043
- gB (P06473) protein, numerical value of heatmap FIG. 6C (DE, timepoint 120): 1.203
- sp|P09710|IR01_HCMVA (P09710) protein, numerical value of heatmap FIG. 6C (DE, timepoint 120): 0.7849
- IRS1 (P09715) protein, numerical value of heatmap FIG. 6C (IE, timepoint 24): 0.2
- TRS1 (P09695) protein, numerical value of heatmap FIG. 6C (IE, timepoint 24): 0.1103
- UL13 (P16755) protein, numerical value of heatmap FIG. 6C (IE, timepoint 24): 0.5131
- UL36 (P16767) protein, numerical value of heatmap FIG. 6C (IE, timepoint 24): 0.9885
- UL37 (P16778) protein, numerical value of heatmap FIG. 6C (IE, timepoint 24): 0.5466
- UL122 (P19893) protein, numerical value of heatmap FIG. 6C (IE, timepoint 24): 0.05364
- UL123 (P13202) protein, numerical value of heatmap FIG. 6C (IE, timepoint 24): 0.7324
- IRS1 (P09715) protein, numerical value of heatmap FIG. 6C (IE, timepoint 48): 0.5408
- TRS1 (P09695) protein, numerical value of heatmap FIG. 6C (IE, timepoint 48): 0.403
- UL13 (P16755) protein, numerical value of heatmap FIG. 6C (IE, timepoint 48): 0.7812
